Values after ≈ are worked out from the molar mass of the structure shown.
Legend:
Assay in all cases: MIC, agar dilution
Format in all cases: cell-based
[1] = tested on: S. aureus UBMS 88-5 (tetM); details: S. aureus UBMS 88-5 (tetM)
[2] = tested on: S. aureus IVES 1983 (meth. resistant); details: S. aureus IVES 1983 (meth. resistant)
E. coli UBMS 89-1 (tetM) = details: E. coli UBMS 89-1 (tetM)
E. coli ATCC 25922 = details: E. coli ATCC 25922
[3] = tested on: E. coli UBMS 89-2 (Sensitive); details: E. coli UBMS 89-2 (Sensitive)
E. coli UBMS 88-1 (tetB) = details: E. coli UBMS 88-1 (tetB)
[4] = tested on: S. aureus UBMS 90-2 (tetM); details: S. aureus UBMS 90-2 (tetM)
[5] = tested on: S. aureus IVES 2943 (meth. resistant); details: S. aureus IVES 2943 (meth. resistant)
[6] = tested on: S. aureus ATCC 29213 (Sensitive); details: S. aureus ATCC 29213 (Sensitive)
[7] = tested on: S. aureus UBMS 88-7 (tetK); details: S. aureus UBMS 88-7 (tetK)
[8] = tested on: S. haemolyticus AVAH 88-3; details: S. haemolyticus AVAH 88-3
[9] = tested on: S. aureus UBMS 88-4 (Sensitive); details: S. aureus UBMS 88-4 (Sensitive)
E. faecalis ATCC 29212 = details: E. faecalis ATCC 29212
[10] = tested on: S. aureus Smith (Sensitive); details: S. aureus Smith (Sensitive)
[11] = tested on: S. aureus UBMS 90-1 (tetM); details: S. aureus UBMS 90-1 (tetM)
[12] = tested on: E. coli UBMS 88-2 (Sensitive); details: E. coli UBMS 88-2 (Sensitive)
[13] = tested on: S. aureus UBMS 90-3 (Sensitive); details: S. aureus UBMS 90-3 (Sensitive)
E. faecalis 12201 = details: E. faecalis 12201

| Structure (SMILES) | MIC [1] | MIC [2] | MIC (E. coli UBMS 89-1 (tetM)) | MIC (E. coli ATCC 25922) | MIC [3] | MIC (E. coli UBMS 88-1 (tetB)) | MIC [4] | MIC [5] | MIC [6] | MIC [7] | MIC [8] | MIC [9] | MIC (E. faecalis ATCC 29212) | MIC [10] | MIC [11] | MIC [12] | MIC [13] | MIC (E. faecalis 12201) |
| --- | --- | --- | --- | --- | --- | --- | --- | --- | --- | --- | --- | --- | --- | --- | --- | --- | --- | --- |
| CN(C)c1cc(N(C)C)c2c(c1O)C(=O)C1=C(O)C3(O)C(=O)C(C(N)=O)=C(O)C(N(C)C)C3CC1C2 (centres unmarked) [C, 7-(Dimethylamino)-9-(dimethylamino)-6-demethyl-6-deoxytetracycline] | 0.12 µg/mL (≈ 0.24 µM) | 1 µg/mL (≈ 2 µM) | 1 µg/mL (≈ 2 µM) | 0.25 µg/mL (≈ 0.499 µM) | 0.5 µg/mL (≈ 0.999 µM) | 16 µg/mL (≈ 32 µM) | 0.12 µg/mL (≈ 0.24 µM) | 1 µg/mL (≈ 2 µM) | ≦0.015 μg/ml | 0.25 µg/mL (≈ 0.499 µM) | 0.12 µg/mL (≈ 0.24 µM) | 0.03 µg/mL (≈ 0.0599 µM) | 0.06 µg/mL (≈ 0.12 µM) | 0.03 µg/mL (≈ 0.0599 µM) | 0.5 µg/mL (≈ 0.999 µM) | 0.25 µg/mL (≈ 0.499 µM) | 0.03 µg/mL (≈ 0.0599 µM) | 0.5 µg/mL (≈ 0.999 µM) |
| CCN(CC)c1cc(NC(C)=O)c(O)c2c1C[C@H]1C[C@H]3[C@H](N(C)C)C(O)=C(C(N)=O)C(=O)[C@@]3(O)C(O)=C1C2=O.O=S(=O)(O)O.O=S(=O)(O)O [Compound E, 9-(Acetylamino)-7-(diethylamino)-6-demethyl-6-deoxytetracycline disulfate] | 4 µg/mL | 16 µg/mL | 32 µg/mL | 32 µg/mL | >32 µg/mL | >32 µg/mL | 2 µg/mL | 8 µg/mL | ≦0.015 μg/ml | 4 µg/mL | 8 µg/mL | 0.5 µg/mL | 2.0 µg/mL | 0.5 µg/mL | 8 µg/mL | >32 µg/mL | 0.5 µg/mL | 16 µg/mL |
| CCN(CC)c1cc(NC(C)=O)c(O)c2c1CC1CC3C(N(C)C)C(O)=C(C(N)=O)C(=O)C3(O)C(O)=C1C2=O (centres unmarked) [F, 9-(Acetylamino)-7-(diethylamino)-6-demethyl-6-deoxytetracycline] | 0.5 µg/mL (≈ 0.922 µM) | 4 µg/mL (≈ 7.37 µM) | 4 µg/mL (≈ 7.37 µM) | 4 µg/mL (≈ 7.37 µM) | 32 µg/mL (≈ 59 µM) | >32 µg/mL | 0.5 µg/mL (≈ 0.922 µM) | 2 µg/mL (≈ 3.69 µM) | ≦0.015 μg/ml | 2 µg/mL (≈ 3.69 µM) | 2 µg/mL (≈ 3.69 µM) | 0.25 µg/mL (≈ 0.461 µM) | 0.25 µg/mL (≈ 0.461 µM) | 0.12 µg/mL (≈ 0.221 µM) | 2 µg/mL (≈ 3.69 µM) | 32 µg/mL (≈ 59 µM) | 0.12 µg/mL (≈ 0.221 µM) | 4 µg/mL (≈ 7.37 µM) |
| CC(=O)Nc1cc(I)c2c(c1O)C(=O)C1=C(O)C3(O)C(=O)C(C(N)=O)=C(O)C(N(C)C)C3CC1C2.O=S(=O)(O)O (centres unmarked) [H, 9-(Acetylamino)-7-iodo-6-demethyl-6-deoxytetracycline sulfate] | 1 µg/mL | 32 µg/mL | 128 µg/mL | 16 µg/mL | 16 µg/mL |  | 0.5 µg/mL | 32 µg/mL | 0.22 µg/mL | 16 µg/mL | 2 µg/mL | 0.25 µg/mL | 0.25 µg/mL | 0.12 µg/mL | 1 µg/mL | >128 µg/mL | 0.12 µg/mL | 2 µg/mL |
| CN(C)c1cc(NC(=O)COCc2ccccc2)c(O)c2c1CC1CC3C(N(C)C)C(O)=C(C(N)=O)C(=O)C3(O)C(O)=C1C2=O (centres unmarked) [J, 7-(Dimethylamino)-9-([(phenylmethoxy)acetyl)amino]-6-demethyl-6-deoxytetracycline] | 4 µg/mL (≈ 6.44 µM) | 4 µg/mL (≈ 6.44 µM) | >32 µg/mL | 32 µg/mL (≈ 51.6 µM) | >32 µg/mL | >32 µg/mL | 2 µg/mL (≈ 3.22 µM) | 4 µg/mL (≈ 6.44 µM) | 0.06 µg/mL (≈ 0.0967 µM) | 2 µg/mL (≈ 3.22 µM) | 4 µg/mL (≈ 6.44 µM) | 2 µg/mL (≈ 3.22 µM) | 4 µg/mL (≈ 6.44 µM) | 0.5 µg/mL (≈ 0.806 µM) | 4 µg/mL (≈ 6.44 µM) | >32 µg/mL | 0.5 µg/mL (≈ 0.806 µM) | 2 µg/mL (≈ 3.22 µM) |
| CC(=O)OCC(=O)Nc1cc(N(C)C)c2c(c1O)C(=O)C1=C(O)[C@]3(O)C(=O)C(C(N)=O)=C(O)[C@@H](N(C)C)[C@@H]3C[C@@H]1C2 [K, 9-[[(Acetyloxy)acetyl]amino)-7-(dimethylamino)-6-demethyl-6-deoxytetracycline] | 0.25 µg/mL (≈ 0.437 µM) | 32 µg/mL (≈ 55.9 µM) | 1 µg/mL (≈ 1.75 µM) | 4 µg/mL (≈ 6.99 µM) | 8 µg/mL (≈ 14 µM) | 16 µg/mL (≈ 27.9 µM) | 0.06 µg/mL (≈ 0.105 µM) | 32 µg/mL (≈ 55.9 µM) | ≦0.015 μg/ml | 32 µg/mL (≈ 55.9 µM) | 0.5 µg/mL (≈ 0.873 µM) | 0.12 µg/mL (≈ 0.21 µM) | 0.06 µg/mL (≈ 0.105 µM) | ≦0.015 μg/ml | 0.25 µg/mL (≈ 0.437 µM) | 4 µg/mL (≈ 6.99 µM) | 0.03 µg/mL (≈ 0.0524 µM) | 0.25 µg/mL (≈ 0.437 µM) |
| CN(C)c1cc(NC(=O)CO)c(O)c2c1CC1CC3C(N(C)C)C(O)=C(C(N)=O)C(=O)C3(O)C(O)=C1C2=O (centres unmarked) [L, 7-(Dimethylamino)-9-[(hydroxyacetyl)amino]-6-demethyl-6-deoxytetracycline] | 4 µg/mL (≈ 7.54 µM) | >32 µg/mL | >32 µg/mL | 32 µg/mL (≈ 60.3 µM) | >32 µg/mL | >32 µg/mL | 2 µg/mL (≈ 3.77 µM) | >32 µg/mL | 0.5 µg/mL (≈ 0.942 µM) | >32 µg/mL | 16 µg/mL (≈ 30.2 µM) | 4 µg/mL (≈ 7.54 µM) | 2 µg/mL (≈ 3.77 µM) | 0.5 µg/mL (≈ 0.942 µM) | 8 µg/mL (≈ 15.1 µM) | >32 µg/mL | 1 µg/mL (≈ 1.88 µM) | 4 µg/mL (≈ 7.54 µM) |
| CN(C)c1cc(NC(=O)CN)c(O)c2c1CC1CC3C(N(C)C)C(O)=C(C(N)=O)C(=O)C3(O)C(O)=C1C2=O.O=C(O)C(F)(F)F (centres unmarked) [M, 9-[(Aminoacetyl)amino]-7-(dimethylamino)-6-demethyl-6-deoxytetracycline mono(trifluoroacetate)] | 1 µg/mL | >32 µg/mL | 2 µg/mL | 2 µg/mL | 2 µg/mL | 2 µg/mL | 0.5 µg/mL | >32 µg/mL | 0.5 µg/mL | >32 µg/mL | 1 µg/mL | 1 µg/mL | 0.25 µg/mL | 1 µg/mL | 2 µg/mL | 2 µg/mL | 0.5 µg/mL | 0.25 µg/mL |
| CN(C)c1cc(NC(=O)c2cccc(C(F)(F)F)c2)c(O)c2c1CC1CC3C(N(C)C)C(O)=C(C(N)=O)C(=O)C3(O)C(O)=C1C2=O (centres unmarked) [U, 7-(Dimethylamino)-9-[[3-(trifluoromethyl)benzoyl)amino]-6-demethyl-6-deoxytetracycline] | 1 µg/mL (≈ 1.55 µM) | 1 µg/mL (≈ 1.55 µM) | >32 µg/mL | ≧32 μg/ml | ≧32 μg/ml | >32 µg/mL | 1 µg/mL (≈ 1.55 µM) | 1 µg/mL (≈ 1.55 µM) | 0.5 µg/mL (≈ 0.776 µM) | 1 µg/mL (≈ 1.55 µM) | 1 µg/mL (≈ 1.55 µM) | 0.5 µg/mL (≈ 0.776 µM) | 1 µg/mL (≈ 1.55 µM) | 1 µg/mL (≈ 1.55 µM) | 1 µg/mL (≈ 1.55 µM) | >32 µg/mL | 0.5 µg/mL (≈ 0.776 µM) | 1 µg/mL (≈ 1.55 µM) |
